In patent US5776720A, “Assay reagent” (priority 1995, dated 1998):
Where “and” joins values, the source holds several entries; their conditions need not be identical. Equal entries are not always repeated. Numbered stars: 1 amine (or outer) side, 2 acyl side, 3 side chain; on linkers, the order of the positions; unused ones are H or OH. Bridge positions count the residues as written; N and C are the ends. Peptide text beside a SMILES is read from it. I, II: the chains in the order shown. Rhodamine110 = O=C1OC2(c3ccc(N[*:1])cc3Oc3cc(N[*:2])ccc32)c2ccccc21

Columns and labels:
Format in all cases: cell-based, human
[1] = test system: Ala-aminopeptidase and Lys-aminopeptidase, Dipeptidyl peptidase IV and Cathepsin D; test: Panel of substrates in normals and HIV+ patients (Table 4)
Experimental: A panel of assay compounds are assembled consisting of Ala-aminopeptidase and Lys-aminopeptidase, Dipeptidyl peptidase IV (Ala-Ala)2 rhodamine 110 and Cathepsin D to indicate possible TB infection in AIDS related cases.
A panel of enzymatic substrates is performed consisting of Ala-aminopeptidase and Lys-aminopeptidase, Dipeptidyl peptidase IV (Ala-Ala)2 rhodamine 110 and Cathepsin D to indicate possible TB infection in AIDS related cases.

[2] = test system: lymphocytes; test: Normal leukocyte enzyme activity (Table 3A), lymphocytes; design: unit not given here; conditions: normal donors
Source text: (§1) The measured fluorescence intensity can be converted from mean channel fluorescence (in peak or integrated mode) to MESF (molecules of equivalent soluble fluorochrome, Flow Cytometry Standards Corp. , San Juan, Puerto Rico) or International Units of hydrolysis per cell. A normal range of enzyme activity is established by assaying males and females in sufficient quantity to characterize the population levels statistically.
(§2) A normal in house adult donor pool was drawn, recording sex and determining that no known disease state was present at the time of sample draw. Criteria for rejecting samples included patients under medication, patients with infection or inflammation of any type, colds and flu as well as any known medical illness such as cancer, heart ailment and high blood pressure. A donor list of 75 patients has been developed and a mean and 2 sd range established. A subgroup of "super normals" was developed from this list by examining the 75 patients to determine which group falls closest to the mean for all enzymes in all cell types tested. These patients were used as the "wellness index" or best group of "normalcy" patients. If a study required the use of children or newborns then this same format was used to develop a data base for these age groups.

[3] = test system: granulocytes; test: Normal leukocyte enzyme activity (Table 3A), granulocytes; design: unit not given here; conditions: normal donors
Source text: as §1, §2

[4] = test system: erythrocytes; test: Normal erythrocyte enzyme activity (Table 3B); conditions: normal donors
Experimental: A sample, consisting of whole blood (in EDTA, Heparin or ACD) or dissociated tissue or body fluids (synovial fluid) or cell culture media is obtained and stored in a manner so as not to decrease viability. The sample is washed sufficiently to remove plasma, media, body fluid, debris and extra-cellular enzymes. The wash media consists of a physiologically balanced buffered salt solution. The washed cells are incubated at 37° C. 50 μL of sample and 25 μL of substrate media are mixed together and allowed to incubate at 37° C. for a predetermined amount of time. At the end of the incubation period, the sample is then measured for fluorescence.
as §2

[5] = test system: monocytes; test: Normal leukocyte enzyme activity (Table 3A), monocytes; design: unit not given here; conditions: normal donors
Source text: as §1, §2

[6] = test system: GRANS; test: Aberrant enzyme activities in febrile children (Table 7), grans
[7] = test system: MONOS; test: Aberrant enzyme activities in febrile children (Table 7), monos

Compound | NORMAL LEUKOCYTE ENZYME ACTIVITY, LYMPHS Mean [2] | NORMAL LEUKOCYTE ENZYME ACTIVITY, GRANS Mean [3] | NORMAL E[…] ACTIVITY MEAN [4] | NORMAL LEUKOCYTE ENZYME ACTIVITY, MONOS Mean [5] | also measured
NC(=O)CC[C@H](N)C(=O)N[C@@H](CO)C(=O)Nc1ccc2c(c1)Oc1cc(NC(=O)[C@H](CO)NC(=O)[C@@H](N)CCC(N)=O)ccc1C21OC(=O)c2ccccc21 (relative stereo) [GLN--SER*] |  |  |  |  | MEAN DELTA FL ([1]; HIV + PATIENTS): 13.7 and 12.7; MEAN DELTA FL ([1]; NORMALS): 11.9 and 6.1
O=C1OC2(c3ccc(OC4O[C@H](CO)[C@@H](O)[C@H](O)[C@H]4O)cc3Oc3cc(OC4O[C@H](CO)[C@@H](O)[C@H](O)[C@H]4O)ccc32)c2ccccc21 (stereo partly drawn) [DIGLUC (FL)] | 0.23 | 0.45 | 0.110 | 1.89 | 
O=C1OC2(c3ccc(OP(=O)(O)O)cc3Oc3cc(OP(=O)(O)O)ccc32)c2ccccc21 [DPO4, (PO4)2 fluorescein] | 54.29 | 85.42 | 0.151 | 148.32 | 
CC(=O)Oc1ccc2c(c1)Oc1cc(OC(C)=O)ccc1C21OC(=O)c2ccccc21 [FDA, fluorescein diacetate, reference compound] | 13.38 | 68.37 | 0.126 |  | 
CC(=O)Oc1ccc2c(c1)Oc1cc(OC(C)=O)ccc1C21OC(=O)c2ccccc21 [FDA--NAF, fluorescein diacetate, reference compound] | 17.98 | 81.99 | 0.136 | 93.36 | 
C[C@H](NC(=O)CNC(=O)[C@H](Cc1ccccc1)NC(=O)CN)C(=O)Nc1ccc2c(c1)Oc1cc(NC(=O)[C@H](C)NC(=O)CNC(=O)[C@H](Cc3ccccc3)NC(=O)CN)ccc1C21OC(=O)c2ccccc21 [GFGA, (Gly-Phe-Gly-Ala)2 Rho 110] (I: H-GFGA / II: H-GFGA; linker I:C-II:C via Rhodamine110) |  |  | 0.131 | 1.01 | 
CC(C)C[C@H](NC(=O)[C@@H]1CCCN1C(=O)CN)C(=O)NCC(=O)N1CCC[C@H]1C(=O)Nc1ccc2c(c1)Oc1cc(NC(=O)[C@@H]3CCCN3C(=O)CNC(=O)[C@H](CC(C)C)NC(=O)[C@@H]3CCCN3C(=O)CN)ccc1C21OC(=O)c2ccccc21 [GPLGP, (H--Gly--Pro--Leu--Gly--Pro)2 Rho 110.2TFA] (I: H-GPLGP / II: H-GPLGP; linker I:C-II:C via Rhodamine110) | 8.97 | 16.88 | 0.164 | 23.38 | 
CC(C)C[C@H](NC(=O)CNC(=O)[C@@H](N)CC(C)C)C(=O)NCC(=O)Nc1ccc2c(c1)Oc1cc(NC(=O)CNC(=O)[C@H](CC(C)C)NC(=O)CNC(=O)[C@@H](N)CC(C)C)ccc1C21OC(=O)c2ccccc21 [LGLG, (H--L--Leu--Gly--Leu--Gly)2 Rho 110.2TFA] (I: H-LGLG / II: H-LGLG; linker I:C-II:C via Rhodamine110) | 1.42 | 4.08 | 0.122 | 11.36 | 
N=C(N)NCCC[C@H](N)C(=O)NCC(=O)N[C@@H](CCC(=O)O)C(=O)N[C@@H](CO)C(=O)Nc1ccc2c(c1)Oc1cc(NC(=O)[C@H](CO)NC(=O)[C@H](CCC(=O)O)NC(=O)CNC(=O)[C@@H](N)CCCNC(=N)N)ccc1C21OC(=O)c2ccccc21 (stereo partly drawn) [RGES, (Arg-Gly-Glu-Ser)2 Rho 110] (I: H-RGES / II: H-RGES; linker I:C-II:C via Rhodamine110) | 1.43 | 3.96 | 0.118 | 8.37 | 
C[C@H](NC(=O)OCc1ccccc1)C(=O)N[C@@H](C)C(=O)Nc1ccc2c(c1)Oc1cc(NC(=O)[C@H](C)NC(=O)[C@H](C)NC(=O)OCc3ccccc3)ccc1C21OC(=O)c2ccccc21 [Z--AA, (Z--Ala--Ala)2 Rho 110] | 151.20 | 363.20 |  | 328.25 | 
C[C@H](NC(=O)OCc1ccccc1)C(=O)NCC(=O)Nc1ccc2c(c1)Oc1cc(NC(=O)CNC(=O)[C@H](C)NC(=O)OCc3ccccc3)ccc1C21OC(=O)c2ccccc21 [Z--AG, (Z--Ala--Gly)2 Rho 110] | 15.17 | 33.19 |  | 34.51 | 
N=C(N)NCCC[C@H](NC(=O)OCc1ccccc1)C(=O)Nc1ccc2c(c1)Oc1cc(NC(=O)[C@H](CCCNC(=N)N)NC(=O)OCc3ccccc3)ccc1C21OC(=O)c2ccccc21 (stereo partly drawn) [Z--ARG] | 2.02 | 7.22 | 0.106 | 16.80 | 
O=C(NCC(=O)N1CCC[C@H]1C(=O)Nc1ccc2c(c1)Oc1cc(NC(=O)[C@@H]3CCCN3C(=O)CNC(=O)OCc3ccccc3)ccc1C21OC(=O)c2ccccc21)OCc1ccccc1 [Z--GP, (carbobenzyloxycarbonyl-Gly-Pro)2 Rho 110] | 107.56 | 240.99 |  | 225.10 | 
C[C@@H](O)[C@H](NC(=O)OCc1ccccc1)C(=O)N1CCC[C@H]1C(=O)Nc1ccc2c(c1)Oc1cc(NC(=O)[C@@H]3CCCN3C(=O)[C@@H](NC(=O)OCc3ccccc3)[C@@H](C)O)ccc1C21OC(=O)c2ccccc21 [Z--TP6.5, (carbobenzyloxycarbonyl-Thr-Pro)2 Rho 110 (pH 6.5)] | 21.97 | 58.05 |  | 49.69 | 
(Val-Lys)2 Rho 110 (modified) [VK--M] | 2.05 | 4.31 |  | 43.37 | 
(carbobenzyloxycarbonyl-Gly-Pro)2 Rho 110 (modified) [Z--GP--M] | 53.74 | 130.62 |  | 119.81 | 
ALA--GLY* |  |  |  |  | MEAN DELTA FL ([1]; HIV + PATIENTS): 29.7; MEAN DELTA FL ([1]; HIV + PATIENTS, listed as ALA--GLY****): 39.9; MEAN DELTA FL ([1]; NORMALS): 31.6; MEAN DELTA FL ([1]; NORMALS, listed as ALA--GLY****): 48.0
dichlorofluorescein |  |  | 0.268 |  | aberrant enzyme activity ([6]; P89 Viral Stomatitis): + (>0.25 Increase over normal range); aberrant enzyme activity ([6]; P92 Adenitis): + (>0.25 Increase over normal range); aberrant enzyme activity ([6]; P95 Viral Syndrome): + (>0.25 Increase over normal range); aberrant enzyme activity ([6]; P96 Viral Syndrome): + (>0.25 Increase over normal range); aberrant enzyme activity ([6]; P97 Pyelonephritis): + (>0.25 Increase over normal range); aberrant enzyme activity ([6]; P101 Fever-Unknown Origin): + (>0.25 Increase over normal range); aberrant enzyme activity ([6]; P103 Viral Syndrome): + (>0.25 Increase over normal range); aberrant enzyme activity ([7]; P89 Viral Stomatitis): + (>0.25 Increase over normal range); aberrant enzyme activity ([7]; P92 Adenitis): + (>0.25 Increase over normal range); aberrant enzyme activity ([7]; P95 Viral Syndrome): + (>0.25 Increase over normal range); aberrant enzyme activity ([7]; P96 Viral Syndrome): + (>0.25 Increase over normal range); aberrant enzyme activity ([7]; P97 Pyelonephritis): + (>0.25 Increase over normal range); aberrant enzyme activity ([7]; P101 Fever-Unknown Origin): + (>0.25 Increase over normal range); aberrant enzyme activity ([7]; P103 Viral Syndrome): °
